Measured values reported in patent US6342516B1, “Phenylazole compounds, process for producing the same and drugs for hyperlipemia” (Nippon Soda Co., Ltd., priority 1998, dated 2002).

system: cholesterol-fed hamsters; assay: Effect on serum lipids of cholesterol-fed hamsters (serum total cholesterol and triglyceride reduction rate); format: in vivo; details: cholesterol-fed Syrian hamsters, oral once a day for 5 days, dose 6.25 mg/kg
Procedure: Pharmacological Test Example 1: Effect on serum lipids of cholesterol-fed hamsters
Syrian hamsters (Std:Syrian, Male, 4 weeks old) were freely fed with chow containing 1% cholesterol and 10% coconut oil for 3 weeks ad libitum.
At the last week of feeding, each of the test compounds was dissolved or suspended in either 0.1% hydrochloric acid solution or 1% polyethylene-hydrogenated castor oil (NIKKOL HCO-60) solution and was orally administrated to hamsters once a day for 5 days. For the hamsters of the control group, only the solvent was orally administered. Then, blood was collected from the abdominal vein under the condition of anesthesia with pentobarbital at 2-4 hours after the last administration, and the serum in the blood was separated. The serum total cholesterol value and the serum triglyceride value were determined by using autobiochemical analyzer with analizing kits, and reduction rate of the serum lipids was determined according to the equation indicated below based on the analyzed values for respective hamster groups.
Serum lipids reduction rate (%)=(Amount of serum lipids of the control group−Amount of serum lipids of the group administrated with the test compound)/Amount of serum lipids of the control group×100

**Q.** Which results are given for `O=C(Nc1ccc(-n2ccnc2)cc1)c1cccnc1` [4-26]?
**A.** Serum lipids reduction rate comparing to Control group (%), Means of 3 animals: Total cholesterol: 22%; Serum lipids reduction rate comparing to Control group (%), Means of 3 animals: Triglyceride: 48%

same assay, conditions: cholesterol-fed Syrian hamsters, oral once a day for 5 days, dose 12.5 mg/kg

**Q.** Which results are given for `O=C(Nc1ccc(-n2ccnc2)cc1)c1ccc[nH]1` [4-38]?
**A.** Serum lipids reduction rate comparing to Control group (%), Means of 3 animals: Total cholesterol: 32%; Serum lipids reduction rate comparing to Control group (%), Means of 3 animals: Triglyceride: 31%

**Q.** Which results are given for `O=C(Nc1ccc(-n2ccnc2)cc1)C1CCCO1` (racemic) [4-17]?
**A.** Serum lipids reduction rate comparing to Control group (%), Means of 3 animals: Total cholesterol: 35%; Serum lipids reduction rate comparing to Control group (%), Means of 3 animals: Triglyceride: 53%

**Q.** `COc1ccc2c(c1)cc(C(=O)Nc1ccc(-n3ccnc3)cc1)n2C` [4-6] was tested. Which “Serum lipids reduction rate comparing to Control group (%), Means of 3 animals: Total cholesterol” value did it give?
**A.** 41%

**Q.** What about the “Serum lipids reduction rate comparing to Control group (%), Means of 3 animals: Triglyceride” value of the same molecule?
**A.** 71%

**Q.** Which results are given for `O=C(COc1nc2c(c(C(F)(F)F)n1)CCO2)Nc1ccc(-n2ccnc2)cc1` [4-81]?
**A.** Serum lipids reduction rate comparing to Control group (%), Means of 3 animals: Total cholesterol: 22%; Serum lipids reduction rate comparing to Control group (%), Means of 3 animals: Triglyceride: 43%

**Q.** For `Cn1c(CCC(=O)Nc2ccc(-n3ccnc3)cc2)nc2ccccc21` [4-97], which “Serum lipids reduction rate comparing to Control group (%), Means of 3 animals: Total cholesterol” value is on record?
**A.** 26%

**Q.** What about the “Serum lipids reduction rate comparing to Control group (%), Means of 3 animals: Triglyceride” value of the same molecule?
**A.** 33%

**Q.** Which “Serum lipids reduction rate comparing to Control group (%), Means of 3 animals: Total cholesterol” value does the source give for `O=C(Nc1ccc(-n2ccnc2)cc1)c1ccccn1` [4-24] here?
**A.** 30%

**Q.** And the “Serum lipids reduction rate comparing to Control group (%), Means of 3 animals: Triglyceride” value?
**A.** 25%

**Q.** `O=C(COc1cnc2ccccc2n1)Nc1ccc(-n2ccnc2)cc1` [4-79] was tested. Which “Serum lipids reduction rate comparing to Control group (%), Means of 3 animals: Total cholesterol” value did it give?
**A.** 29%

**Q.** What about the “Serum lipids reduction rate comparing to Control group (%), Means of 3 animals: Triglyceride” value of the same molecule?
**A.** 45%

**Q.** `Cc1cc(C(=O)Nc2ccc(-n3ccnc3)cc2)[nH]n1` [4-15] was tested. Which “Serum lipids reduction rate comparing to Control group (%), Means of 3 animals: Total cholesterol” value did it give?
**A.** 37%

**Q.** And the “Serum lipids reduction rate comparing to Control group (%), Means of 3 animals: Triglyceride” value?
**A.** 73%

same assay, conditions: cholesterol-fed Syrian hamsters, oral once a day for 5 days, dose 25 mg/kg

**Q.** With `O=C(Nc1ccc(-n2ccnc2)cc1)c1nccc2ccccc12` [4-22] as the molecule, how does the “Serum lipids reduction rate comparing to Control group (%), Means of 3 animals: Total cholesterol” value read?
**A.** 48%

**Q.** What about the “Serum lipids reduction rate comparing to Control group (%), Means of 3 animals: Triglyceride” value of the same molecule?
**A.** 61%

**Q.** With `O=C1CCC(C(=O)Nc2ccc(-n3ccnc3)cc2)=NN1` [4-46] as the molecule, how does the “Serum lipids reduction rate comparing to Control group (%), Means of 3 animals: Total cholesterol” value read?
**A.** 52%

**Q.** And the “Serum lipids reduction rate comparing to Control group (%), Means of 3 animals: Triglyceride” value?
**A.** 45%

**Q.** Which “Serum lipids reduction rate comparing to Control group (%), Means of 3 animals: Total cholesterol” value does the source give for `O=C(CSc1cnccn1)Nc1ccc(-n2ccnc2)cc1` [4-87] here?
**A.** 34%

**Q.** And the “Serum lipids reduction rate comparing to Control group (%), Means of 3 animals: Triglyceride” value?
**A.** 37%

**Q.** For `O=C(COc1nccc(C(F)(F)F)n1)Nc1ccc(-n2ccnc2)cc1` [4-103], which “Serum lipids reduction rate comparing to Control group (%), Means of 3 animals: Total cholesterol” value is on record?
**A.** 35%

**Q.** What about the “Serum lipids reduction rate comparing to Control group (%), Means of 3 animals: Triglyceride” value of the same molecule?
**A.** 46%

**Q.** Which “Serum lipids reduction rate comparing to Control group (%), Means of 3 animals: Total cholesterol” value does the source give for `O=C(COc1ccc2ncccc2c1)Nc1ccc(-n2ccnc2)cc1` [4-73] here?
**A.** 34%

**Q.** What about the “Serum lipids reduction rate comparing to Control group (%), Means of 3 animals: Triglyceride” value of the same molecule?
**A.** 50%

**Q.** For `O=C(Nc1ccc(-n2ccnc2)cc1)c1ccc2ccc(O)nc2c1` [4-44], which “Serum lipids reduction rate comparing to Control group (%), Means of 3 animals: Total cholesterol” value is on record?
**A.** 21%

**Q.** What about the “Serum lipids reduction rate comparing to Control group (%), Means of 3 animals: Triglyceride” value of the same molecule?
**A.** 31%

**Q.** `Cc1cc(=O)oc2cc(OCC(=O)Nc3ccc(-n4ccnc4)cc3)ccc12` [4-88] was tested. Which “Serum lipids reduction rate comparing to Control group (%), Means of 3 animals: Total cholesterol” value did it give?
**A.** 39%

**Q.** And the “Serum lipids reduction rate comparing to Control group (%), Means of 3 animals: Triglyceride” value?
**A.** 53%

**Q.** With `Cn1ccc(C(=O)Nc2ccc(-n3ccnc3)cc2)c1` [4-3] as the molecule, how does the “Serum lipids reduction rate comparing to Control group (%), Means of 3 animals: Total cholesterol” value read?
**A.** 75%

**Q.** And the “Serum lipids reduction rate comparing to Control group (%), Means of 3 animals: Triglyceride” value?
**A.** 91%

**Q.** `Cc1cc(C(=O)Nc2ccc(-n3ccnc3)cc2)n(C)n1` [4-14] was tested. Which “Serum lipids reduction rate comparing to Control group (%), Means of 3 animals: Total cholesterol” value did it give?
**A.** 66%

**Q.** What about the “Serum lipids reduction rate comparing to Control group (%), Means of 3 animals: Triglyceride” value of the same molecule?
**A.** 42%

**Q.** What does the source list for `O=C(Nc1ccc(-n2ccnc2)cc1)c1cc2ccccc2o1` [4-31]?
**A.** Serum lipids reduction rate comparing to Control group (%), Means of 3 animals: Total cholesterol: 46%; Serum lipids reduction rate comparing to Control group (%), Means of 3 animals: Triglyceride: 59%

**Q.** Which results are given for `O=C(Nc1ccc(-n2ccnc2)cc1)c1ccc2ccccc2n1` [4-41]?
**A.** Serum lipids reduction rate comparing to Control group (%), Means of 3 animals: Total cholesterol: 50%; Serum lipids reduction rate comparing to Control group (%), Means of 3 animals: Triglyceride: 67%

**Q.** Which results are given for `O=C(COc1ccc2c(c1)OCO2)Nc1ccc(-n2ccnc2)cc1` [4-80]?
**A.** Serum lipids reduction rate comparing to Control group (%), Means of 3 animals: Total cholesterol: 40%; Serum lipids reduction rate comparing to Control group (%), Means of 3 animals: Triglyceride: 52%

**Q.** Which “Serum lipids reduction rate comparing to Control group (%), Means of 3 animals: Total cholesterol” value does the source give for `COc1cccc2cc(C(=O)Nc3ccc(-n4ccnc4)cc3)oc12` [4-63] here?
**A.** 26%

**Q.** And the “Serum lipids reduction rate comparing to Control group (%), Means of 3 animals: Triglyceride” value?
**A.** 29%

**Q.** `Cc1ccc2[nH]c(C(=O)Nc3ccc(-n4ccnc4)cc3)cc2c1` [4-7] was tested. Which “Serum lipids reduction rate comparing to Control group (%), Means of 3 animals: Total cholesterol” value did it give?
**A.** 27%

**Q.** What about the “Serum lipids reduction rate comparing to Control group (%), Means of 3 animals: Triglyceride” value of the same molecule?
**A.** 31%

**Q.** Which “Serum lipids reduction rate comparing to Control group (%), Means of 3 animals: Total cholesterol” value does the source give for `O=C(COc1cccnc1)Nc1ccc(-n2ccnc2)cc1` [Compound No. 4-85] here?
**A.** 39%

**Q.** What about the “Serum lipids reduction rate comparing to Control group (%), Means of 3 animals: Triglyceride” value of the same molecule?
**A.** 44%

**Q.** `O=C(Nc1ccc(-n2ccnc2)cc1)C1CCOCC1` [4-32] was tested. Which “Serum lipids reduction rate comparing to Control group (%), Means of 3 animals: Total cholesterol” value did it give?
**A.** 58%

**Q.** What about the “Serum lipids reduction rate comparing to Control group (%), Means of 3 animals: Triglyceride” value of the same molecule?
**A.** 68%

**Q.** Which “Serum lipids reduction rate comparing to Control group (%), Means of 3 animals: Total cholesterol” value does the source give for `O=C(CC1CCc2sccc2C1=O)Nc1ccc(-n2ccnc2)cc1` (centres unmarked) [4-72] here?
**A.** 37%

**Q.** What about the “Serum lipids reduction rate comparing to Control group (%), Means of 3 animals: Triglyceride” value of the same molecule?
**A.** 53%

**Q.** For `O=C(Nc1ccc(-n2ccnc2)cc1)c1cnc2ccccc2c1` [4-66], which “Serum lipids reduction rate comparing to Control group (%), Means of 3 animals: Total cholesterol” value is on record?
**A.** 55%

**Q.** What about the “Serum lipids reduction rate comparing to Control group (%), Means of 3 animals: Triglyceride” value of the same molecule?
**A.** 66%

**Q.** `CC12CCC(C(=O)Nc3ccc(-n4ccnc4)cc3)(OC1=O)C2(C)C` (centres unmarked) [4-19] was tested. Which “Serum lipids reduction rate comparing to Control group (%), Means of 3 animals: Total cholesterol” value did it give?
**A.** 19%

**Q.** And the “Serum lipids reduction rate comparing to Control group (%), Means of 3 animals: Triglyceride” value?
**A.** 50%

**Q.** Which results are given for `CC(C)(C)c1cc(C(=O)Nc2ccc(-n3ccnc3)cc2)[nH]n1` [4-16]?
**A.** Serum lipids reduction rate comparing to Control group (%), Means of 3 animals: Total cholesterol: 34%; Serum lipids reduction rate comparing to Control group (%), Means of 3 animals: Triglyceride: 34%

**Q.** How did the “Serum lipids reduction rate comparing to Control group (%), Means of 3 animals: Total cholesterol” value turn out when `O=C(Nc1ccc(-n2ccnc2)cc1)c1ccc2c(c1)OCO2` [4-21] was run?
**A.** 51%

**Q.** What about the “Serum lipids reduction rate comparing to Control group (%), Means of 3 animals: Triglyceride” value of the same molecule?
**A.** 57%

**Q.** Which “Serum lipids reduction rate comparing to Control group (%), Means of 3 animals: Total cholesterol” value does the source give for `Cc1c(C(=O)Nc2ccc(-n3ccnc3)cc2)oc2ccccc12` [4-62] here?
**A.** 42%

**Q.** What about the “Serum lipids reduction rate comparing to Control group (%), Means of 3 animals: Triglyceride” value of the same molecule?
**A.** 59%

**Q.** Which results are given for `O=C(Nc1ccc(-n2ccnc2)cc1)C1CCc2ccccc2O1` (racemic) [4-11]?
**A.** Serum lipids reduction rate comparing to Control group (%), Means of 3 animals: Total cholesterol: 43%; Serum lipids reduction rate comparing to Control group (%), Means of 3 animals: Triglyceride: 47%

**Q.** `O=C(Nc1ccc(-n2ccnc2)cc1)c1ccncc1` [4-27] was tested. Which “Serum lipids reduction rate comparing to Control group (%), Means of 3 animals: Total cholesterol” value did it give?
**A.** 40%

**Q.** What about the “Serum lipids reduction rate comparing to Control group (%), Means of 3 animals: Triglyceride” value of the same molecule?
**A.** 46%

**Q.** With `O=C(Nc1ccc(-n2ccnc2)cc1)c1n[nH]c2ccccc12` [4-34] as the molecule, how does the “Serum lipids reduction rate comparing to Control group (%), Means of 3 animals: Total cholesterol” value read?
**A.** 37%

**Q.** What about the “Serum lipids reduction rate comparing to Control group (%), Means of 3 animals: Triglyceride” value of the same molecule?
**A.** 39%

**Q.** `COc1cc2cc(CCC(=O)Nc3ccc(-n4ccnc4)cc3)n(S(C)(=O)=O)c2cc1OC` [4-100] was tested. Which “Serum lipids reduction rate comparing to Control group (%), Means of 3 animals: Total cholesterol” value did it give?
**A.** 26%

**Q.** What about the “Serum lipids reduction rate comparing to Control group (%), Means of 3 animals: Triglyceride” value of the same molecule?
**A.** 33%

**Q.** `O=C(CN1C(=O)COc2ccccc21)Nc1ccc(-c2cn[nH]c2)cc1` [4-92] was tested. Which “Serum lipids reduction rate comparing to Control group (%), Means of 3 animals: Total cholesterol” value did it give?
**A.** 29%

**Q.** What about the “Serum lipids reduction rate comparing to Control group (%), Means of 3 animals: Triglyceride” value of the same molecule?
**A.** 34%

**Q.** What does the source list for `O=C(CCOC1CCOC1)Nc1ccc(-n2ccnc2)cc1` (centres unmarked) [4-104]?
**A.** Serum lipids reduction rate comparing to Control group (%), Means of 3 animals: Total cholesterol: 25%; Serum lipids reduction rate comparing to Control group (%), Means of 3 animals: Triglyceride: 38%
